The assay deals with Platelet Agglutination. Nature of the assay: In vitro inhibition of platelet agglutination (rabbit platelet rich plasma, aggregometer) induced by arachidonic acid, collagen or ADP. Type of assay: cell-based. The conditions noted are these: Oryctolagus cuniculus, rabbit PRP, 37° C., compound in dimethylsulfoxide+saline. Here is the method: The inhibitory activity of the representative compounds of the present invention against platelet agglutination is shown in the following in vitro test.
Mature male rabbits (NIBS-JW, RABITON Institute Inc., weighing 2.2-2.7 kg) were used. Under sodium pentobarbital anesthesia (Somnopentyl, Pitman Movre, about 25 mg/Kg, i.v.), blood was with from the carotid artery by cannulation into centrifuge tubes containg 1/10 vol of a 3.8% sodium citrate solution. (The total volume in each tube was adjusted to 8 ml.) The blood in a tube was gentyl mixed by turing and centrifuged for 10 minutes at 210 g at 20° C. to give platelet rich plasma (PRP). The remaining blood was further centrifuged at 3,000 rpm (about 1,900 g) for 10 minutes at 20° C. to give platelet-poor plasma (PPP).
PRP was diluted with PPP to prepare a blood sample whose platelet number was 50-55×10^4 /μl. The sample was then subjected to a platelet agglutination test.
The platelet agglutination was examined by the method of Bron [Born, G.V.R., Nature, 194, 927-929 (1962)], using a Type AUTO RAM-61 aggregometer, (Rika Denki Co., Ltd., Tokyo). A volume of 400 μl of PRP, whose platelet number was adjusted to 50-55×10^4 /μl, was placed in a measuring cuvette and set in the aggregometer. PRP was warmed at 37° C. for 1 minute with stirring at 1,200 rpm, and then a solution of the test compound [dimethylsulfoxide solution (2 μl) of the compound+saline (48 μl); in case of prostaglandin I2 (PGI2) and prostaglandin E1 (PG E1), a solution of each compound (50 μl) in Tris buffer] was added thereto. Exactly 2 minutes later, 50 μl of ADP Pharmacia, U.S.A., (final concentration: 30 μM) or collagen (final muchen, muchen, concentration: 20 μg/ml) or arachidonic acid (sodium salt, Sigma, final concentration (500 μM) was added as a platelet agglutinating agent, and the change in light transmission caused by platelet agglutination was recorded.
The light transmissions of PRP and PPP were taken as 0% and 100% agglutination, respectively, and the maximum light transmission after addition of an agglutinating agent was made to the maxiumum agglutination. The inhibition rate of the platelet agglutination was expressed as the percentage of the maximum agglutination by a test compound to that by a control (Vehicle added group).
Prostaglandin (PG) I2 and E1 are served as standard substances.

[1] abbreviates: ADP, final 30 μM, read-out: Inhibition Activity against Platelet Agglutination [50% Inhibition Concentration (μM)], ADP.
The mark [2] stands for this setting: arachidonic acid, final 500 μM, read-out: Inhibition Activity against Platelet Agglutination [50% Inhibition Concentration (μM)], Arachidonic acid.
Where [3] appears, read: collagen, final 20 μg/ml, read-out: Inhibition Activity against Platelet Agglutination [50% Inhibition Concentration (μM)], Collagen.

Read-outs that look alike come from different tables or passages of the source.

In the case of `C#CC#C[C@]12C[C@@H](O)[C@H](/C=C/[C@@H](O)CCCCC)[C@H]1CC(SCCCC(=O)OCC)=N2` [17(S)k, ethyl 4-[1-(1,3-butadiynyl)-7-hydroxy-6-[(3S)-3-hydroxy-1-octenyl]-2-azabicycl[3.3.0]oct-2-en-3-yl]thiobutanoate], the IC50 reads like this: under setting [1], 0.27 µM; under setting [2], 0.74 µM; under setting [3], 0.053 µM.

`C#C[C@]12C[C@@H](O)[C@H](/C=C/[C@@H](O)C(C)CC#CC)[C@H]1CC(SCCCC(=O)OCC)=N2` (stereo partly drawn) [17(S)g-d]: the IC50 under setting [1] stood at 0.014 µM, the IC50 under setting [2] turned out to be 0.018 µM and the IC50 under setting [3] was 0.0042 µM.

Turning to `C=C[C@]12C[C@@H](O)[C@H](/C=C/[C@H](O)C(C)CC#CC)[C@H]1CC(SCCCC(=O)OCC)=N2` (stereo partly drawn) [17(R)l-d], the IC50 came out at 55 µM under setting [1], 118 µM under setting [2] and 23 µM under setting [3].

Regarding `C#C[C@]12C[C@@H](O)[C@H](/C=C/[C@@H](O)CCCCC)[C@H]1CC(SCCCC(=O)OCC)=N2` [17(S)g, ethyl 4-[1-ethynyl-7-hydroxy-6-[(3S)-3-hydroxy-1-octenyl]-2-azabicyclo[3.3.0]oct-2-en-3-yl]thiobutanoate], the IC50 was determined as 0.011 µM under setting [1], 0.02 µM under setting [2] and 0.006 µM under setting [3].

On to `C=C[C@]12C[C@@H](O)[C@H](/C=C/[C@@H](O)CCCCC)[C@H]1CC(SCCCC(=O)OCC)=N2` [17(S)l, ethyl 4-[1-ethenyl-7-hydroxy-6[(3S)-3-hydroxy-1-octenyl]-2-azabicyclo[3.3.0]oct-2-en-3-yl]thiobutanoate], for which the IC50 was 0.42 µM under setting [1], 0.7 µM under setting [2] and 0.1 µM under setting [3].

As to `CCCCC[C@H](O)/C=C/[C@H]1[C@H](O)C[C@]2(Sc3ccccc3)N=C(SCCCC(=O)OCC)C[C@H]12` [17(S)a, ethyl 4-[7-hydroxy-6-[(3S)-3-hydroxy-1-octenyl]-1-phenylthio-2-azabicyclo[3.3.0]oct-2-en-3-yl]thiobutanoate], the IC50 by setting is: under setting [1], 16 µM; under setting [2], 21 µM; under setting [3], 8 µM.

Take `C#C[C@]12C[C@@H](O)[C@H](/C=C/[C@H](O)C(C)CC#CC)[C@H]1CC(SCCCC(=O)OCC)=N2` (stereo partly drawn) [17(R)g-d]: the IC50 is 8.43 µM under setting [1], 11.7 µM under setting [2] and 4 µM under setting [3].

With `CCCCC[C@H](O)/C=C/[C@H]1[C@H](O)C[C@]2(OC)N=C(SCCCC(=O)OCC)C[C@H]12` [17(S)b], the IC50 by setting is: under setting [1], 15 µM; under setting [2], 16 µM; under setting [3], 7 µM.

Take `C#C[C@]12C[C@@H](O)[C@H](/C=C/[C@@H](O)C(C)CCCC)[C@H]1CC(SCCCC(=O)OCC)=N2` (stereo partly drawn) [17(S)g-b]: the IC50 worked out at 0.0066 µM under setting [1], 0.012 µM under setting [2] and 0.0013 µM under setting [3].

For `C=C[C@]12C[C@@H](O)[C@H](/C=C/[C@@H](O)C(C)CC#CC)[C@H]1CC(SCCCC(=O)OCC)=N2` (stereo partly drawn) [17(S)l-d], the IC50 is, setting by setting: under setting [1], 0.13 µM; under setting [2], 0.36 µM; under setting [3], 0.048 µM.

On to `CCCCC[C@H](O)/C=C/[C@H]1[C@H](O)C[C@]2(C#N)N=C(SCCCC(=O)OCC)C[C@H]12` [17(S)m, ethyl 4-[1-cyano-7-hydroxy-6-[(3S)-3-hydroxy-1-octenyl]-2-azabicyclo[3.3.0]oct-2-en-3-yl]thiobutanoate], for which the IC50 under setting [1] was 0.167 µM, the IC50 under setting [2] was found to be 0.332 µM and the IC50 under setting [3] stood at 0.044 µM.

With `CCCCC[C@H](O)/C=C/[C@H]1[C@H](O)C[C@]2(C#Cc3ccccc3)N=C(SCCCC(=O)OCC)C[C@H]12` [17(S)i], the IC50 by setting is: under setting [1], 5 µM; under setting [2], 44 µM; under setting [3], 0.45 µM.

Consider `C#C[C@]12C[C@@H](O)[C@H](/C=C/[C@H](O)C(C)CCCC)[C@H]1CC(SCCCC(=O)OCC)=N2` (stereo partly drawn) [17(R)g-b], for which the IC50 was determined as 2.06 µM under setting [1], 1.55 µM under setting [2] and 0.54 µM under setting [3].
